Laboratory results: ChEMBL document CHEMBL5696442, “Discovery of type II inhibitors of TGFβ-activated kinase 1 (TAK1) and mitogen-activated protein kinase kinase kinase kinase 2 (MAP4K2)” (J Med Chem, 2015)

Assays:
MEF = assay: Inhibition of IL-1alpha induced JNK1/2 phosphorylation level in mouse MEF cells preincubated for 1 hr followed by IL-1 alpha stimulation and measured after 30 mins by Western blot analysis; assay type: functional, cell-based; details: dose 0.01-10 µM
[1] = biological target: T1, Serine/threonine-protein kinase Sgk3 (Homo sapiens) (UniProt Q96BR1); assay: Inhibition of SGK3 Lys1 labeling site in human A-375 cells at 0.5 uM by KiNativ Profiling analysis relative to control; assay type: cell-based
T1 sequence (whole entry): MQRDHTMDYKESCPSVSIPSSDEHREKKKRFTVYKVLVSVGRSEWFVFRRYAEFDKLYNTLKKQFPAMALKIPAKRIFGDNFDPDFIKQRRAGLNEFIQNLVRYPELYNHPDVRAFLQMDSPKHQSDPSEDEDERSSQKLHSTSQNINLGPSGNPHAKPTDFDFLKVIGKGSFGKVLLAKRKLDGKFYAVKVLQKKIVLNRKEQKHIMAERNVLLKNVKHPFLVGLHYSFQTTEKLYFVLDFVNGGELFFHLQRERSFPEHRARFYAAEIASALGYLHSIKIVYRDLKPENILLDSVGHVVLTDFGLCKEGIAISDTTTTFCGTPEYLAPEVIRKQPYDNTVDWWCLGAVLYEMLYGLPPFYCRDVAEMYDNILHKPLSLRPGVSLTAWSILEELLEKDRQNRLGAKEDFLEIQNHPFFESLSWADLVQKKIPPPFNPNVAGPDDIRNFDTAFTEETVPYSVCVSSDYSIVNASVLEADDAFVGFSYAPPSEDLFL

[2] = biological target: Tyrosine-protein kinase HCK (Homo sapiens) (UniProt P08631); assay: Inhibition of HCK (unknown origin) at 10 uM by Ambit Kinomescan binding assay relative to control; values are per cent of control
Chain of Tyrosine-protein kinase HCK (Homo sapiens) (P08631 2-526 limits assumed): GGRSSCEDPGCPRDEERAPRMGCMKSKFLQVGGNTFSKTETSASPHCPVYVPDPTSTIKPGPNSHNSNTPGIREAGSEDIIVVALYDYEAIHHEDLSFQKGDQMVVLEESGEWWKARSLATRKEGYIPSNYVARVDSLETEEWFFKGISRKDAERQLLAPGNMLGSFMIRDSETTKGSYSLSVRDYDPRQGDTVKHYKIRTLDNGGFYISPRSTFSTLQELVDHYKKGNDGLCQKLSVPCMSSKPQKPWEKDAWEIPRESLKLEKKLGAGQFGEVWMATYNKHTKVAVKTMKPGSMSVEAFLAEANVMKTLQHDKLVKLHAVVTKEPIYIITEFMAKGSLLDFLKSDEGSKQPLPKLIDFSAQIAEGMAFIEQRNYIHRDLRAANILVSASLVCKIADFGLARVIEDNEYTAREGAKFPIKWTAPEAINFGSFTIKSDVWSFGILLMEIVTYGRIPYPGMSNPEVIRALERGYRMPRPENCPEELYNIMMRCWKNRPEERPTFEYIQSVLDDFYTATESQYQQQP

[3] = biological target: Serine/threonine-protein kinase/endoribonuclease IRE1 (Homo sapiens) (UniProt O75460); assay: Inhibition of IRE1 Lys2 labeling site in human Huh-7 cell lysate at 1 uM by KiNativ Profiling analysis relative to control; assay type: subcellular
Chain of Serine/threonine-protein kinase/endoribonuclease IRE1 (Homo sapiens) (O75460 19-977 limits assumed): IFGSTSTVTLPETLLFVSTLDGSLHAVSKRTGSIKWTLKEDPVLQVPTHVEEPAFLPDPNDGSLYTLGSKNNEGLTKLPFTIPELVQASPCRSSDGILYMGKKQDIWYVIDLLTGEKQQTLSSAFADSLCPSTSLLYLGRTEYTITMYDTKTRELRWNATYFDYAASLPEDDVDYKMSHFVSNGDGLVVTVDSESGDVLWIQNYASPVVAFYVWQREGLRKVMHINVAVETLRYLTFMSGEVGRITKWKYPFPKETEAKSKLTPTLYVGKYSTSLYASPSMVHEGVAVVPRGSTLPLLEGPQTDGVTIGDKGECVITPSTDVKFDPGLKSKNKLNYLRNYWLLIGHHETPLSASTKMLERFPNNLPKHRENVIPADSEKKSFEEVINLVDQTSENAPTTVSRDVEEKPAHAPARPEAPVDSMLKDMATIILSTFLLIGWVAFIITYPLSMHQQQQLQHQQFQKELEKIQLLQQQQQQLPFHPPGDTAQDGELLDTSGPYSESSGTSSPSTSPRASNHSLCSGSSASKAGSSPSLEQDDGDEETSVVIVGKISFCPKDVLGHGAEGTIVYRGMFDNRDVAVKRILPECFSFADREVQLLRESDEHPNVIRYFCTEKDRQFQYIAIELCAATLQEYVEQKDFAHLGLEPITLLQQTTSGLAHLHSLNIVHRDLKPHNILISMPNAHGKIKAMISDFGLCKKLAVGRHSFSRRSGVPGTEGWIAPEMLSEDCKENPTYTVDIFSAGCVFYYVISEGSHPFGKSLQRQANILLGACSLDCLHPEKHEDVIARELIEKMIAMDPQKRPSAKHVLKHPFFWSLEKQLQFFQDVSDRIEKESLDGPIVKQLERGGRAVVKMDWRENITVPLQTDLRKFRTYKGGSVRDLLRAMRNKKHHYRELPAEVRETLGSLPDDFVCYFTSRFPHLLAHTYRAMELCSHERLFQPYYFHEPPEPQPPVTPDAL

[4] = biological target: T2, Serine/threonine-protein kinase TAO3 (Homo sapiens) (UniProt Q9H2K8); assay: Inhibition of TAO3 Lys2 labeling site in human Huh-7 cell lysate at 1 uM by KiNativ Profiling analysis relative to control; assay type: subcellular
T2 sequence (whole entry): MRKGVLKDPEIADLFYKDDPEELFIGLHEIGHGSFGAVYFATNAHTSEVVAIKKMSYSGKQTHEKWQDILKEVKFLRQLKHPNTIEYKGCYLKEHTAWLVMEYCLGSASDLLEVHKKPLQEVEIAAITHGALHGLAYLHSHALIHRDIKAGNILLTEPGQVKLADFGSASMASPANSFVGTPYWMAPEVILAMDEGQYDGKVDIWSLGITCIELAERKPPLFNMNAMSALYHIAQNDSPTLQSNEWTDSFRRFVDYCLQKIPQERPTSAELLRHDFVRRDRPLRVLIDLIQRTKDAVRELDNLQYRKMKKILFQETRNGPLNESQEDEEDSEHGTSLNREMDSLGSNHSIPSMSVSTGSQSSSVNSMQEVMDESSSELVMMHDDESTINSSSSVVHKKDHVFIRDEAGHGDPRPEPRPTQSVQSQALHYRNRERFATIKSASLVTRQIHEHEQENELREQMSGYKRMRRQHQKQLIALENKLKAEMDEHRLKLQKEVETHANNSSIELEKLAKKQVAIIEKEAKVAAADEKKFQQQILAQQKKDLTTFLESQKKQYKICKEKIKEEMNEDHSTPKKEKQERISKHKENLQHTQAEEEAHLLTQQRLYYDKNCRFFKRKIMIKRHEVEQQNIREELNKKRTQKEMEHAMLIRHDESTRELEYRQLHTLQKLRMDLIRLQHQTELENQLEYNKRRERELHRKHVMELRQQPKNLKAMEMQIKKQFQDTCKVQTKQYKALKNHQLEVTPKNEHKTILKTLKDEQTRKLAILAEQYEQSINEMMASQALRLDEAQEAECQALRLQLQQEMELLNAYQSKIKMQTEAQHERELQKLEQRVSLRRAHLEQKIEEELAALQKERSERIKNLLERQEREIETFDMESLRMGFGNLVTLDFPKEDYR

[5] = biological target: Putative phosphatidylinositol 4-kinase alpha-like protein P2 (Homo sapiens) (UniProt A4QPH2); assay: Inhibition of PI4KAP2 ATP labeling site in human Huh-7 cells at 1 uM by KiNativ Profiling analysis relative to control; assay type: cell-based
Chain of Putative phosphatidylinositol 4-kinase alpha-like protein P2 (Homo sapiens) (A4QPH2 whole entry): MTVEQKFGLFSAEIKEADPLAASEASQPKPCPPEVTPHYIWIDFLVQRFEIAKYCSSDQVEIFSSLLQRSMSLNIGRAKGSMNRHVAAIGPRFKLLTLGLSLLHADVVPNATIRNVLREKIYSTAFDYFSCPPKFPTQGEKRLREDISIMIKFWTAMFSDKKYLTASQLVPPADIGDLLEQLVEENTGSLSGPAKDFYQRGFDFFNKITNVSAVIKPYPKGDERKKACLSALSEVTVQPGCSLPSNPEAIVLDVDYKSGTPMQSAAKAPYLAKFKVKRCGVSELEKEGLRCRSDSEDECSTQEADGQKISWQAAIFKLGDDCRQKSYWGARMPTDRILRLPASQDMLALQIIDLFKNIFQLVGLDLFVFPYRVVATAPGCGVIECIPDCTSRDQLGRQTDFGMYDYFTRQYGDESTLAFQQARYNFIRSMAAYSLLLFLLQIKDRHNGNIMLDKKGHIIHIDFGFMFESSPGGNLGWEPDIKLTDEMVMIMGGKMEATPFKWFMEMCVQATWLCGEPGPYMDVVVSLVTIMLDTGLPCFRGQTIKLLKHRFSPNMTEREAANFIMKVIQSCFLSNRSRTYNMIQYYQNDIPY

[6] = biological target: Myosin light chain kinase, smooth muscle (Homo sapiens) (UniProt Q15746); assay: Inhibition of smMLCK Lys2 labeling site in human Huh-7 cells at 1 uM by KiNativ Profiling analysis relative to control; assay type: cell-based
Chain of Myosin light chain kinase, smooth muscle (Homo sapiens) (Q15746 whole entry): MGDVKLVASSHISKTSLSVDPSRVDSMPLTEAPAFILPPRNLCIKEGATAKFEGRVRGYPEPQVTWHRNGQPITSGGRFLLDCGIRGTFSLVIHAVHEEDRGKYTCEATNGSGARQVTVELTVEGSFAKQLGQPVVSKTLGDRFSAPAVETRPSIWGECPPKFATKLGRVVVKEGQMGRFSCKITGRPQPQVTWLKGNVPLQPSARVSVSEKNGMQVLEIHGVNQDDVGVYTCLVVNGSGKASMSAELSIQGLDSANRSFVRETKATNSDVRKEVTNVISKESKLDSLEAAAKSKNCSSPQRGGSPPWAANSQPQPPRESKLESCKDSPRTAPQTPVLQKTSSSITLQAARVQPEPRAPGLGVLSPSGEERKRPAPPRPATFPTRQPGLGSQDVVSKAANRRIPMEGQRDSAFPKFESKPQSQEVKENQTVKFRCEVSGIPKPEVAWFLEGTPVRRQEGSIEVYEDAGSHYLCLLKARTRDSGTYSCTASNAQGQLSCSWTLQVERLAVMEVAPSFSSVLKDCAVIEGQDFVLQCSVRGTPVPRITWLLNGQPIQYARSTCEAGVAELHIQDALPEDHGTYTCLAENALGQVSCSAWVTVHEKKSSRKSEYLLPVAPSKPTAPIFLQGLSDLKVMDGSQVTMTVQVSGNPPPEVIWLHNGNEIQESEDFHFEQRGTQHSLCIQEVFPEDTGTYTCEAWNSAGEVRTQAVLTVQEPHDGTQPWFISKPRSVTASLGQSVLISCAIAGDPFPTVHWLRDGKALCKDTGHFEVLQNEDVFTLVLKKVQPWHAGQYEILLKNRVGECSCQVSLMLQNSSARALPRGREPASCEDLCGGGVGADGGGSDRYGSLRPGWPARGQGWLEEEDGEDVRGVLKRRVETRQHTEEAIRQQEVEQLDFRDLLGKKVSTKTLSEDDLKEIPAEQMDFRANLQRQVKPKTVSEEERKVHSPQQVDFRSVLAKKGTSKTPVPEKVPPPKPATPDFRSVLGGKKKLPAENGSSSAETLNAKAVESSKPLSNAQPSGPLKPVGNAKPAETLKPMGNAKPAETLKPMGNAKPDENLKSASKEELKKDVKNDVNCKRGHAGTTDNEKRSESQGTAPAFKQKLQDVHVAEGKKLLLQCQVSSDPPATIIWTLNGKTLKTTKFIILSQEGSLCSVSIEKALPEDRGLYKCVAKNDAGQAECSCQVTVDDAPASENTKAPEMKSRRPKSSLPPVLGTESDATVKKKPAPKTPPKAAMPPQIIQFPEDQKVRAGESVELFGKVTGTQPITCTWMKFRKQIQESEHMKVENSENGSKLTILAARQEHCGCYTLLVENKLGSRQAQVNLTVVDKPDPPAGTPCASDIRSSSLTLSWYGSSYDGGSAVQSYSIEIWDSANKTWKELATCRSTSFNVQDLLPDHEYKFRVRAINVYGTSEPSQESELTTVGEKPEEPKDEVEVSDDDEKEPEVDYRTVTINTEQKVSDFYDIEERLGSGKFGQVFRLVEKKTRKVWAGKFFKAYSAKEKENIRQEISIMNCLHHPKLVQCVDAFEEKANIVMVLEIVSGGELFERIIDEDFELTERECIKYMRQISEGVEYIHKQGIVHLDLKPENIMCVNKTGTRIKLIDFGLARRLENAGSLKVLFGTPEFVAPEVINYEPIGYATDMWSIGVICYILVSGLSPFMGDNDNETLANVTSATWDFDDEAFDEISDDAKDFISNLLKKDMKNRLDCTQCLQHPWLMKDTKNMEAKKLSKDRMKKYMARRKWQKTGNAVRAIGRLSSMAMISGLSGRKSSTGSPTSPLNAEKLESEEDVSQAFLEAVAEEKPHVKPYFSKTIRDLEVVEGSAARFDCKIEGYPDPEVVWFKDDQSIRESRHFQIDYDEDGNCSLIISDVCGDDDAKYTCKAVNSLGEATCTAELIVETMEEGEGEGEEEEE

[7] = Inhibition of KHS1 Lys1 labeling site in human A-375 cells at 0.5 uM by KiNativ Profiling analysis relative to control; details: condition cancer
[8] = biological target: Activated CDC42 kinase 1 (Homo sapiens) (UniProt Q07912); assay: Inhibition of ACK Lys1 labeling site in human A-375 cells at 0.5 uM by KiNativ Profiling analysis relative to control; assay type: cell-based
[9] = biological target: Phosphatidylinositol 4-kinase alpha (Homo sapiens) (UniProt P42356); assay: Inhibition of PI4KA ATP labeling site in human A-375 cells at 0.05 uM by KiNativ Profiling analysis relative to control; assay type: cell-based
[10] = biological target: Serine/threonine-protein kinase VRK2 (Homo sapiens) (UniProt Q86Y07); assay: Inhibition of VRK2 Lys2 labeling site in human A-375 cells at 0.05 uM by KiNativ Profiling analysis relative to control; assay type: cell-based
Chain of Serine/threonine-protein kinase VRK2 (Homo sapiens) (Q86Y07 whole entry, canonical isoform): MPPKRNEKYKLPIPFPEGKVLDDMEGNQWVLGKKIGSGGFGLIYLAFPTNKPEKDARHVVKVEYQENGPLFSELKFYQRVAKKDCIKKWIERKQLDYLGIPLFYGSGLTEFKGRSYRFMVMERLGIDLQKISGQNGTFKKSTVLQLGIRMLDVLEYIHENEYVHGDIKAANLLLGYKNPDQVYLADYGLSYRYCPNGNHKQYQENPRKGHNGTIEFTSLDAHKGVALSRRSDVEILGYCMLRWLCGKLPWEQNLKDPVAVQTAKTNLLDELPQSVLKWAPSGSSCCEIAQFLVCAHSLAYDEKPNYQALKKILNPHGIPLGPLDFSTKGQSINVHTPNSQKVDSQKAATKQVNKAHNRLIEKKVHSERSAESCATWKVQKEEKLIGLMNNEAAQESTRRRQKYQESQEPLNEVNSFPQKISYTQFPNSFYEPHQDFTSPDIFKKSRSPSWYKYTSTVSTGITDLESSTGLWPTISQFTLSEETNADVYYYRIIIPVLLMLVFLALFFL

[11] = biological target: T3, Phosphorylase b kinase gamma catalytic chain, liver/testis isoform (Homo sapiens) (UniProt P15735); assay: Inhibition of PHKG2 (unknown origin) at 1 uM by Ambit Kinomescan binding assay relative to control; values are per cent of control
T3 sequence (whole entry): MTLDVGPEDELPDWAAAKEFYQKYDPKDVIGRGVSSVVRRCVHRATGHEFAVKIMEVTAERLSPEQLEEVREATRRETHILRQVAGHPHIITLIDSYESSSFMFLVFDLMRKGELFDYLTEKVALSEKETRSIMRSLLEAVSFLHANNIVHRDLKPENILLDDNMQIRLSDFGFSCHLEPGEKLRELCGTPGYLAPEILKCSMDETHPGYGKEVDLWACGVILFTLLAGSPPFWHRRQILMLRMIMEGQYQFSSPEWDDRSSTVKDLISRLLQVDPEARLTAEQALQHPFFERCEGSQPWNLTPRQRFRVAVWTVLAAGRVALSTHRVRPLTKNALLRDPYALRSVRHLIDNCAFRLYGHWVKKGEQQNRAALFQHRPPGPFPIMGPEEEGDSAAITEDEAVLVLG

[12] = biological target: Serine/threonine-protein kinase 32A (Homo sapiens) (UniProt Q8WU08); assay: Inhibition of YANK1 (unknown origin) at 1 uM by Ambit Kinomescan binding assay relative to control; values are per cent of control
Chain of Serine/threonine-protein kinase 32A (Homo sapiens) (Q8WU08 whole entry): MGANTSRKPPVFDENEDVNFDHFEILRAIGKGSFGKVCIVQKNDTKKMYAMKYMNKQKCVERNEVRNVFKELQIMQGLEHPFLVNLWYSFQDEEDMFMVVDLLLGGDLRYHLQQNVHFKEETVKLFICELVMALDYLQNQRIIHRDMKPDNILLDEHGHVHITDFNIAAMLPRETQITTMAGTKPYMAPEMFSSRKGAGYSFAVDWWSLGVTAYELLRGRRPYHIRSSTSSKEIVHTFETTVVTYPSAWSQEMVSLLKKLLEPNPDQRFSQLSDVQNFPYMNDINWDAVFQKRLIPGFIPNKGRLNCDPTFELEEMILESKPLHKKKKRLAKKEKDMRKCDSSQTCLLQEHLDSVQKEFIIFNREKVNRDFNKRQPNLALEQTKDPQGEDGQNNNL

SMILES: CCN1CCN(Cc2ccc(NC(=O)c3ccc(C)c(Oc4ccnc5[nH]ccc45)c3)cc2C(F)(F)F)CC1
- inhibition (MEF): Dose-Dependent Effect
- inhibition [1]: -9.6%
- percent of control [2]: 0.4%

SMILES: CNc1cc(Oc2cc(C(=O)Nc3cc(N4CCN(C)CC4)cc(C(F)(F)F)c3)ccc2C)ncn1
- inhibition [3]: -2.5%
- inhibition [4]: -1.2%
- inhibition [5]: 29.8%
- inhibition [6]: 34.3%

SMILES: CCN1CCN(Cc2ccc(NC(=O)c3ccc(C)c(/C=C/c4cnc5[nH]ccc5c4OC)c3)cc2C(F)(F)F)CC1
- inhibition at 0.5 µM [7]: 53.7%
- inhibition [8]: 35.2%
- inhibition [9]: 0.8%
- inhibition [10]: 28.7%
- residual activity [11]: 100%
- percent of control [12]: 100%
